Measurements from publication PMC8157947, “Peptidic boronic acids are potent cell-permeable inhibitors of the malaria parasite egress serine protease SUB1” (Proceedings of the National Academy of Sciences of the …, 2021).
“And” between values parts separate entries of the source, which are not always exact repeats. Identical values can stand only once. “Also recorded” adds a separate entry of the source. Like-named read-outs stand apart in the source and are kept apart here.

Tests used:
[1] = biological target: T1, recombinant PfSUB1 (rPfSUB1) (Plasmodium falciparum, UniProt Q8I0V0); experiment: rPfSUB1 fluorogenic peptide substrate cleavage inhibition assay; format: biochemical
T1 construct: Chymotrypsin-treated rPfSUB1 (expressed and purified as described previously); made in house
From the text: We previously described the development of a fluorescence-based in vitro assay suitable for the evaluation of substrate-based PfSUB1 inhibitors, using recombinant PfSUB1 (rPfSUB1) and fluorogenic peptide substrates based on cleavage sites within endogenous protein substrates of PfSUB1 ([13], [21]). […] This was perhaps unsurprising due to the high molecular mass and polar nature of these compounds, including the presence of a carboxylic acid moiety that was designed to mimic endogenous PfSUB1 protein substrates by interacting with the basic S’ surface of the PfSUB1 active-site cleft ([16]). Collectively, these features likely rendered the compounds poorly membrane penetrant.
Fluorescence of this peptide is quenched by rhodamine dimerization in the intact substrate but increases upon cleavage at the internal Q-D bond. Chymotrypsin-treated rPfSUB1 (expressed and purified as described previously ([16]) was stored at −80 °C as a 228 U/mL stock in 20 mM Tris–HCl pH 8.2, 150 mM NaCl, 10% glycerol, and diluted for use (1:500 or 1:600) in reaction buffer (20 mM Tris–HCl pH 8.2, 150 mM NaCl, 12 mM CaCl2, 25 mM CHAPS). Peptidic boronic acid inhibitors were dissolved in 100% DMSO at 10 or 20 mM, then further diluted in DMSO to generate stock solutions ranging from 500 to 0.01 μM and then used diluted 1:100 in the enzyme reactions. All reactions were performed in wells of white 96-well microwell plates (Nunc); 50 μL diluted rPfSUB1 was preincubated for 5 min with 1 μL each of the serially diluted boronic acid inhibitors, followed by addition of 50 μL substrate solution (0.1 μM final). Subsequent fluorescence increase was continuously monitored using a SpectraMax M5e plate reader and SoftMax Pro-6.3 software, with readings taken every 5 min for 60 min using excitation and emission values of 552 and 580 nm, respectively. […] All experiments were performed in duplicate.

[2] = system: asexual blood-stage P. falciparum (clone 3D7); experiment: SYBR Green I parasite growth assay; format: cell-based, Plasmodium falciparum; settings: for EC50: Plasmodium falciparum, 3D7, 96 h, two erythrocytic growth cycles, SYBR Green I
Experimental: The impact of the peptidic boronic acids on replication of asexual blood-stage P. falciparum (clone 3D7) was assessed using a SYBR Green I assay, essentially as described by Smilkstein et al. ([22]). Briefly, test compounds (dissolved in dimethyl sulfoxide [DMSO] at concentrations ranging from 4 mM to 5 μM) were added in triplicate to wells of flat bottomed, 96-well microtitre plates (1 μL per well). Wells were then supplemented with 100 μL per well of a P. falciparum parasite culture at 0.1% parasitaemia, 1% hematocrit. Each assay plate also included DMSO-only control wells (1% vol/vol), as well as additional control wells containing uninfected RBCs only. Plates were incubated in sealed, humidified gassed chambers at 37 °C for 96 h to allow the parasites to undergo two entire cycles of erythrocytic growth. Wells were then supplemented with 100 μL 1:5,000 dilution of stock SYBR Green I (Life Technologies, catalog no. S7563) diluted in 20 mM Tris HCl pH 7.5, 5 mM EDTA, 0.008% (weight/vol) saponin, 0.08% (vol/vol) Triton ×100. Plates were agitated to mix, incubated for a further 1 h in the dark at room temperature, then 150 μL samples from each well transferred to a fresh white microwell plate and fluorescence quantified using a SpectraMax M5e plate reader and SoftMax Pro-6.3 software (Ex 485 nm/Em 530 nm). IC50 values were determined from dose–response curves obtained after subtracting background fluorescence values (obtained from the RBC-only wells) from all experimental readings.

[3] = system: P. falciparum 3D7 schizonts; experiment: Short-term egress/invasion assay, ring formation by flow cytometry; format: cell-based, Plasmodium falciparum; settings: for EC50: Plasmodium falciparum, mature 3D7 schizonts with RBCs, 4 h, flow cytometry
Experimental: For this, P. falciparum cultures containing synchronous, highly mature schizonts were supplemented with compounds 3b, 3e, 3i, and 3j at a range of dilutions, then allowed to undergo egress and invasion for just 4 h in the continued presence of the compounds, before assessing formation of newly invaded “ring” stage parasites by flow cytometry.
(§1) Short-term egress, invasion, and washout assays were performed essentially as described previously ([27], [28], [42]). Briefly, highly synchronous mature Percoll-enriched schizonts with or without added fresh RBCs (∼5% parasitaemia final) were incubated with compounds under test or vehicle only (DMSO, 1% vol/vol). For washout assays, schizonts were treated with C2 or various concentrations of inhibitor 3j for 1 to 4 h, then washed extensively (at least four times) prior to addition to fresh RBCs where required. After incubation at 37 °C for just 1 to 4 h (or overnight for invasion assays) to allow schizont rupture, cells were pelleted. Clarified culture supernatants were assessed for extent of hemoglobin release (a measure of schizont rupture) by absorption spectroscopy at 415 nm as described previously ([28]) or analyzed by Western blot using antibodies against SERA5 ([7], [11]). To quantify generation of new rings, samples of the cultures were fixed with 4% paraformaldehyde/0.02% glutaraldehyde and stained with SYBR Green I (Life Technologies) and then analyzed by flow cytometry on a BD FACSVerse using BD FACSuite software. Data were analyzed using FlowJo software. All cultures were also routinely analyzed by microscopic examination of Giemsa-stained thin films to visually assess parasite morphology.

[4] = system: P. falciparum schizonts expressing EXP2-mNeonGreen; experiment: Time-lapse video microscopy of egress after compound washout; format: cell-based, Plasmodium falciparum; settings: 1 μM
P. falciparum schizonts = experiment: Ring formation after pretreatment of schizonts and washout; format: cell-based, Plasmodium falciparum; settings: pretreated schizonts washed, fresh RBCs, assessed at 24 h; 3j 10 μM, C2 1 μM
Experimental: as §1

[5] = system: PfSUB1-mediated proteolytic processing of SERA5; experiment: Western blot of SERA5 processing after washout; format: cell-based, Plasmodium falciparum; settings: 4 h pretreatment then washout
From the text: To seek unambiguous confirmation that PfSUB1 is the intracellular target of compound 3j, we examined the effects of the compound on the PfSUB1-mediated proteolytic processing of the established endogenous PfSUB1 substrate SERA5, an abundant parasite PV protein that only becomes accessible to cleavage upon discharge of PfSUB1 into the PV in the minutes leading up to egress and is then released in a processed form into culture supernatants ([6], [11], [12]). […] It was concluded that compound 3j prevents egress and parasite proliferation through direct inhibition of intracellular PfSUB1.
Short-term egress, invasion, and washout assays were performed essentially as described previously ([27], [28], [42]). […] Clarified culture supernatants were assessed for extent of hemoglobin release (a measure of schizont rupture) by absorption spectroscopy at 415 nm as described previously ([28]) or analyzed by Western blot using antibodies against SERA5 ([7], [11]). To quantify generation of new rings, samples of the cultures were fixed with 4% paraformaldehyde/0.02% glutaraldehyde and stained with SYBR Green I (Life Technologies) and then analyzed by flow cytometry on a BD FACSVerse using BD FACSuite software. Data were analyzed using FlowJo software. All cultures were also routinely analyzed by microscopic examination of Giemsa-stained thin films to visually assess parasite morphology.

[6] = biological target: T1, recombinant PfSUB1 (rPfSUB1); settings: cited from earlier work
[7] = system: asexual blood-stage P. falciparum (clone 3D7); parameters: method as in PMID 22543039, PMID 25129616; settings: earlier work; cited from earlier work
[8] = parameters: method as in PMID 30117017; settings: cited from earlier work
[9] = fluorogenic peptide substrate, mean ± SD of at least three measurements, read-out: IC50 (nM) (rPfSUB1)

T1 sequence (Q8I0V0 218-688): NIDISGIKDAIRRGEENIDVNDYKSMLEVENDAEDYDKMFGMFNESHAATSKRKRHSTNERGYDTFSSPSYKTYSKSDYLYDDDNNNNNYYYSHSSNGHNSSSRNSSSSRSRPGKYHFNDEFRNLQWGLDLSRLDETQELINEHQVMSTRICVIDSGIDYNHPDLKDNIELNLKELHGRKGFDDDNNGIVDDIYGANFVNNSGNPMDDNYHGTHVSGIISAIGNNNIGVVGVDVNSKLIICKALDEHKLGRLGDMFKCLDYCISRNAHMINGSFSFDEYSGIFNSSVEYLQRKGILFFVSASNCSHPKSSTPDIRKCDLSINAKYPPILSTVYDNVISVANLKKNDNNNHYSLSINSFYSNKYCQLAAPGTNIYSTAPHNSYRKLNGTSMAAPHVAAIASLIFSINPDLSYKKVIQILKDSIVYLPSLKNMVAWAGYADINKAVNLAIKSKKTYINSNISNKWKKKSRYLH

CC(=O)N[C@H](C(=O)N[C@H](C(=O)NCC(=O)NC(C)C(=O)C(=O)NCCC(=O)O)[C@@H](C)O)C1CCCC1 (stereo partly shown) [2a]
IC50 ([1]; IC50(PfSUB1), Fig. 1): 400 nM | IC50 ([1]; IC50 (nM) (rPfSUB1), fluorogenic peptide substrate, mean ± SD of at least three measurements): ~370 nM and 370 nM | inhibition at 10 µM ([1]; read-out: degree of rPfSUB1 inhibition at 10 µM (%)): 97% | activity in parasite growth assay [2]: no activity in parasite growth assay

CCC(C)[C@H](NC(C)=O)C(=O)N[C@H](C(=O)NCC(=O)N[C@@H](C)B(O)O)[C@@H](C)O (stereo partly shown) [3a]
IC50 [1, 9]: 69.4 ± 1.2 nM | EC50 [2]: 1.8 ± 0.6 µM

CC(=O)NC(C(=O)NC(C(=O)NCC(=O)NC(C)B(O)O)C(C)O)C1CCCC1 (stereo not shown) [3b]
IC50 [1, 9]: 9.3 ± 0.5 nM | EC50 [2]: 2.3 ± 1.4 µM | EC50 [3]: 12700 ± 800 nM

CC(=O)N[C@H](C(=O)N[C@H](C(=O)NCC(=O)N[C@H](C)B(O)O)[C@@H](C)O)C1CCCC1 [3c]
IC50 [1, 9]: 60.1 ± 2.1 nM | EC50 [2]: 18.4 ± 1.8 µM

CC(=O)N[C@H](C(=O)N[C@H](C(=O)NCC(=O)NCB(O)O)[C@@H](C)O)C1CCCC1 [3d]
IC50 [1, 9]: 54.3 ± 1.1 nM | EC50 [2]: 1.9 ± 0.4 µM

CC(=O)N[C@H](C(=O)N[C@H](C(=O)NCC(=O)N[C@H]1CCOB1O)[C@@H](C)O)C1CCCC1 [3e]
IC50 [1, 9]: 4.6 ± 0.1 nM | EC50 [2]: 15 ± 3.6 µM | EC50 [3]: 15700 ± 2500 nM

CC(=O)N[C@H](C(=O)N[C@H](C(=O)NCC(=O)N[C@H]1CCCOB1O)[C@@H](C)O)C1CCCC1 [3f]
IC50 [1, 9]: 204 ± 7.5 nM

CC(=O)N[C@H](C(=O)N[C@H](C(=O)NCC(=O)N[C@H]1CCC(=O)OB1O)[C@@H](C)O)C1CCCC1 [3g]
IC50 [1, 9]: 18.7 ± 1.3 nM

CC(=O)N[C@H](C(=O)N[C@H](C(=O)NCC(=O)NC(B(O)O)c1ccccc1)[C@@H](C)O)C1CCCC1 (stereo partly shown) [3h]
IC50 [1, 9]: 112 ± 2.3 nM

CC(=O)N[C@H](C(=O)N[C@@H](C)C(=O)NCC(=O)N[C@@H](C)B(O)O)C1CCCC1 [3i]
IC50 [1, 9]: ~7.8 nM and 7.8 nM | EC50 [2]: 0.34 ± 0.08 µM | improved growth inhibitory potency ([2]; relative to compound 3b): ~10 fold | schizont phenotype in Giemsa-stained thin films ([3]; 10 μM, 4 h incubation): arrest of unruptured schizonts with no ring formation | EC50 [3]: 2000 ± 100 nM

CN(C)Cc1ccn2c(-c3ccnc(N)n3)c(-c3ccc(F)cc3)nc2c1 [C2, 4-[7-[(dimethylamino)methyl]-2-(4-fluorphenyl)imidazo[1,2-α]pyridine-3-yl]pyrimidin-2-amine, reference compound]
time of egress initiation following washout [4]: ~6.5 min | ring production after washout (P. falciparum schizonts): produced rings efficiently | SERA5 proteolytic processing [5]: blocked

CC(=O)N[C@H](C(=O)N[C@H](C(=O)NCC(=O)NC(C)C(=O)C(=O)NCCC(=O)O)[C@@H](C)O)C(C)C (stereo partly shown) [compound 1]
IC50 ([6]; Table S1): 900 ± 200 nM | IC50 ([6]; earlier work): ~900 nM | antiparasite activity in vitro / parasite growth assay [7]: no antiparasite activity in vitro; also recorded: no activity in parasite growth assay

CC(C)C[C@H](NC(=O)CNC(=O)c1cc(Cl)ccc1Cl)B(O)O [ixazomib]
terminal half-life [8]: ~228 h
